Patent US20160235778A1, “COMPOSITIONS CONTAINING PUFA, URIDINE AND CHOLINE AND METHODS OF USE THEREOF” (MASSACHUSETTS INSTITUTE OF TECHNOLOGY, priority 2014, published 2016)

Experiments:
brain phospholipids = experiment: Brain phospholipid levels in gerbils given UMP diet and/or PUFA by gavage; format: in vivo, gerbil; set-up: PC / PE / PS / PI: unit not given here
Protocol: Control standard diet (Table 4) consisted of Teklad Global 16% protein rodent diet (Harlan Teklad, Madison, Wis.), which contained 0.1% choline chloride (CC), corresponding to a daily dose of 50 mg/kg/day. UMP was provided as 0.5% UMP·2Na^+ weight/weight, added to the control diet, also prepared by Harlan Teklad, corresponding to 240 mg/kg/day UMP. DHA was administered as 300 mg/kg/day in 200 microliter (mcL)/day 5% Arabic Gum solution, while groups not receiving DHA were administered vehicle (5% Arabic Gum) alone. DHA was provided by Nu-Chek Prep (Elysian, MN) and UMP by Numico (Wagenigen, NL).
Gerbils were anesthetized with ketamine and xylazine (80 and 10 mg/kg bwt, i.p.) and sacrificed by immersing the head into liquid nitrogen for 2 min, followed by decapitation. Brains were immediately and quickly (30 seconds) removed using a bone rongeur and stored at −80° C.
Frozen brain hemispheres were weighed and homogenized in 100 volumes of ice-cold deionized water using a tissue degrader (Polytron PT 10-35, Kinematica AG, Switzerland), then analyzed as described in Example 1.
Protein in whole brain homogenate sample was measured for using bicinchoninic acid reagent (Perkin Elmer, Norwalk, Conn., USA). DNA was measured by measuring 460 nm emission of samples on a fluorometer in the presence of bisbenzimidizole, a fluorescent dye known as Hoechst H 33258 (American Hoechst Corporation), which has an excitation maximum at 356 nm and an emission maximum of 458 when bound to DNA.
Male gerbils weighing 80-100 g were divided into 4 groups of 8 gerbils and administered the supplements depicted in Table 1:
Adult gerbils were administered control standard diet (Table 4) with our without 0.5% UMP and/or 300 mg/kg/day DHA, EPA, or AA. Groups not receiving DHA were administered vehicle (5% Arabic Gum) alone.

[1] = test system: hippocampal dendritic spines; experiment: Hippocampal dendritic spine numbers in pups of treated pregnant and nursing mothers; format: in vivo; settings: rat pups, mothers treated 10 days before parturition and 20 days while nursing
Description: In another study, pregnant rats were allowed to consume ad libitum, for 10 days before parturition and 20 days while nursing, either a choline-containing control diet or this diet supplemented with uridine as UMP; half of each group also received DHA or its diluent daily, by gavage. Pups were then sacrificed and brain slices were examined to determine numbers of hippocampal dendritic spines.

brain CDP-choline = experiment: Brain CDP-choline and CDP-ethanolamine levels (HPLC); format: in vivo; settings: gerbil
Protocol: FIG. 5A-B. Effects of DHA on brain CDP-choline levels (FIG. 5A) and CDP-ethanolamine levels (FIG. 5B). Groups of 8 gerbils received either a control or a UMP-containing diet, and, by gavage, DHA (in a vehicle of 5% gum Arabic solution) or 5% gum Arabic solution alone for 28 days. On the 29th day brains were harvested and assayed for CDP-choline. Data are presented as means±SEM. Statistical analysis was performed using one- or two-way ANOVA followed by Tukey test. a: P<0.05 when compared with the values for control diet plus vehicle group; b: P<0.05 when compared with values for UMP diet plus vehicle group.
Aliquots (2 ml) of the upper (aqueous) phase were dried under a vacuum, reconstituted, and injected into an HPLC. The dried samples were reconstituted in 100-200 μl water and were analyzed by HPLC on an anion exchange column (Alltech Hypersil APS-2, […], 250×4.6 mm). CDP-choline was eluted with a linear gradient of buffers A (H3PO4, 1.75 mM, pH 2.9) and B (NaH2PO2, 500 mM, pH 4.5) from 0 to 100% B over period of 30 min. With this system, CDP-choline was resolved from closely co-eluting substances such as UMP in an isocratic system over a period of 40 min. The retention time for CDP-choline was 9.5 min. The column was washed with buffer B at the end of each experiment and every several days to remove retained nucleotides. Individual nucleotide peaks were detected by UV absorption at 280 nm and were identified by comparison with the positions of authentic standards, as well as by the addition of nucleotide standards to samples.

SHSY-5Y cells = experiment: 14C-choline incorporation into phospholipids in SHSY-5Y cells; format: cell-based, human
Protocol: SHSY-5Y cells were grown to near confluency in DMEM+10% FBS in 35 mm dishes. Cells were incubated for 18 hr in serum-free DMEM+1% FBS containing 30 μM choline+/−10 μM of DHA, arachidonic acid, or palmitic acid. Cells were then labeled, and labeled phospholipids were quantified as described for Example 1.
DHA was dissolved in ethanol to a […] concentration and frozen in 10 microliter aliquots at −80° C. For each experiment, one aliquot was diluted in ethanol to 10 micromolar; the volume giving the desired final solution in incubation medium was mixed with an equal volume of BSA solution (1 gm/ml).
The effect of arachidonic acid on phospholipid synthesis in SHSY-5Y cells was further characterized as described for omega-3 fatty acids and PC-12 cells in Example 2. […] Thus, omega-6 fatty acids stimulate synthesis of a variety of phospholipids in a dose-dependent manner.

[2] = gerbil brain, 3 weeks, 0.5% UMP and/or 300 mg/kg/day PUFA, Table 6
[3] = gerbil brain, 4 weeks, normalized to DNA levels, mean +/- SEM
[4] = gerbil brain, 4 weeks, normalized to protein levels, mean +/- SEM
[5] = gerbil brain, Table 5 part B, One week
[6] = gerbil brain, Table 5 part B, Three weeks
[7] = gerbil, Table 5A study, vs control

## CCC=CCC=CCC=CCC=CCC=CCCCC(=O)O [EPA, 5,8,11,14,17-eicosapentaenoic acid]
Brain phospholipids; [2]
  PC: 125 ± 8
  PE: 76 ± 4
  PI: 22 ± 2
  PS: 31 ± 1
  SM: 26 ± 3
  Total PL: 347 ± 19
Brain phospholipids; gerbil, 3 weeks
  brain phospholipid levels, in words: increased phospholipid levels

## O=c1ccn([C@@H]2O[C@H](COP(=O)(O)O)[C@@H](O)[C@H]2O)c(=O)[nH]1 [UMP, uridine monophosphate]
[1]
  Increase over control (%): 28%
  Number of spines: 68
Brain phospholipids; [2]
  PC: 131 ± 2
  PE: 70 ± 1
  PI: 16 ± 1
  PS: 29 ± 1
  SM: 22 ± 1
  Total PL: 332 ± 5
Brain phospholipids; [3]
  PC: 368 ± 10
  PE: 195 ± 9
  PI: 78 ± 6
  PS: 86 ± 7
  SM: 111 ± 4
  Total PL: 878 ± 18
Brain phospholipids; [4]
  PC: 171 ± 8
  PE: 84 ± 8
  PI: 31 ± 2
  PS: 35 ± 3
  SM: 52 ± 5
  Total PL: 367 ± 22
Brain phospholipids; gerbil brain, 4 weeks, vs control group
  increase in levels of total phospholipids: 5%
Brain phospholipids; gerbil brain, Table 5 part A
  PtdCho: 171 ± 8 nmol/mg prt
  PtdEtn: 64 ± 8 nmol/mg prt
  PtdIns: 31 ± 2 nmol/mg prt
  PtdSer: 35 ± 3 nmol/mg prt
  SM: 52 ± 5 nmol/mg prt
  Total PL: 367 ± 22 nmol/mg prt
Brain phospholipids; [5]
  PtdCho: 154 ± 6 nmol/mg prt
  PtdEtn: 63 ± 4 nmol/mg prt
  PtdIns: 20 ± 4 nmol/mg prt
  PtdSer: 39 ± 1 nmol/mg prt
  SM: 49 ± 3 nmol/mg prt
  Total PL: 390 ± 21 nmol/mg prt
Brain phospholipids; [6]
  PtdCho: 199 ± 5 nmol/mg prt
  PtdEtn: 87 ± 4 nmol/mg prt
  PtdIns: 25 ± 1 nmol/mg prt
  PtdSer: 42 ± 2 nmol/mg prt
  SM: 70 ± 4 nmol/mg prt
  Total PL: 479 ± 6 nmol/mg prt
Brain phospholipids; gerbil, 1 week
  effect on brain phospholipids after 1 week of treatment: no significant effects
Brain phospholipids; [7]
  increase in brain level of PC: 13%
  increase in brain level of PE: 29%
  increase in brain level of PI: 48%
Brain phospholipids; gerbil, treatment for 3 weeks
  increases in brain phospholipids, in words: smaller but still significant increases
Brain CDP-choline; FIG. 5A
  brain CDP-choline levels, in words: decreased
Brain CDP-choline; FIG. 5B
  brain CDP-ethanolamine levels, in words: decreased

## CCCCCC=CCC=CCC=CCC=CCCCC(=O)O [arachidonic acid, 5,8,11,14-eicosatetraenoic acid]
Brain phospholipids; gerbil, 3 weeks
  brain phospholipid levels, in words: increased phospholipid levels
SHSY-5Y cells; 18 h with 10 μM fatty acid, FIG. 3A
  phospholipid synthesis: enhanced
SHSY-5Y cells; range of dosages, dose-dependent, FIG. 3B
  synthesis of total phospholipids, PC and phosphatidylethanolamine: increased synthesis
